The results in this text go back to ChEMBL document CHEMBL4007496, “Isolation and characterization of diterpene glycosides from Siegesbeckia pubescens” (Bioorg Med Chem Lett, 2017).

Experiment [1] relates to RAW264.7. As to the kind of experiment: Antiinflammatory activity in mouse RAW264.7 cells assessed as inhibition of LPS-induced nitric oxide production preincubated for 30 mins followed by LPS challenge measured after 24 hrs by Griess assay. The format is functional, cell-based.
In experiment [2] the test system is MDA-MB-231. The experiment in a line: Inhibition of EGF-induced invasion of human MDA-MB-231 cells by MTT assay. The class given is functional, cell-based. (In general: Tetrazolium dyes change colour on reduction, which living cells bring about.)

Some results are limits rather than exact numbers.

By IC50 is commonly meant the point on the concentration scale where inhibition reaches its midpoint. With `CC1(C)[C@@H](O[C@@H]2O[C@H](CO)[C@@H](O)[C@H](O)[C@H]2O)CC[C@@]2(C)[C@@H]3CC[C@](C)([C@@H](O)CO)C=C3CC[C@H]12`, the results for the IC50 in experiment [1] and in experiment [2] were over 100 µM and 24.8 µM, respectively. The corresponding values for `CC1(C)[C@H]2CCC3=C(CC[C@](C)([C@@H](O)CO)C3)[C@]2(C)CC[C@H]1O[C@@H]1O[C@H](CO)[C@@H](O)[C@H](O)[C@H]1O` are over 100 µM and over 25 µM.

Regarding `CC1(C)[C@H]2CCC3=C[C@@](C)(C=O)CC[C@H]3[C@]2(C)CC[C@H]1O[C@@H]1O[C@H](CO)[C@@H](O)[C@H](O)[C@H]1O`, the IC50 in experiment [1] is over 100 µM; in experiment [2], over 25 µM. Consider `CC1(C)[C@H]2CCC3=C[C@@](C)([C@H](O)CO)CC[C@H]3[C@]2(C)CC[C@H]1O[C@@H]1O[C@H](CO)[C@@H](O)[C@H](O)[C@H]1O`, for which the IC50 in experiment [1] is over 100 µM; in experiment [2] it was 0.27 µM. On to `C=C1C[C@]23CC[C@@H]4[C@](C)(CO[C@@H]5O[C@H](CO)[C@@H](O)[C@H](O)[C@H]5O)CC(=O)C[C@@]4(C)[C@@H]2CC[C@@]1(O)C3`, for which the IC50 in experiment [1] was over 100 µM; in experiment [2], 26.8 µM.

Regarding `CC1(C)[C@H]2CCC3=C[C@@](C)([C@@H](O)CO)CC[C@H]3[C@]2(C)CC[C@H]1O[C@@H]1O[C@H](CO)[C@@H](O)[C@H](O)[C@H]1O`, the results for the IC50 in experiment [1] and in experiment [2] were over 100 µM and over 25 µM, respectively. Consider `CC1(C)[C@H](O)CC[C@@]2(C)[C@@H]3CC[C@](C)([C@@H](O)CO)C=C3CC[C@H]12` [DARUTIGENOL], for which the IC50 in experiment [2] was over 25 µM.
